Earlier results, collected in patent publication US7494668B2, “Fast water-dispersible domperidone tablets” (Laboratorio Medinfar-Produtos Farmaceuticos, S.A., priority 2004, dated 2009).

## maleate
  solubility in water: soluble in water

## O=c1[nH]c2ccccc2n1CCCN1CCC(n2c(=O)[nH]c3cc(Cl)ccc32)CC1 [Domperidone, 5-chloro-1-[1-[3-(2-oxo-2,3-dihydro-1H-benzimidazol-1-yl)propyl]piperidine-4-yl]-1,3-dihydro-2H-benzimidazol-2-one]
  solubility in water: practically insoluble in water
